Measured values from the supplement of paper PMC10307832.

Assays:
Experiment in all cases: relative viability (nuclei count vs DMSO), 5 days (fraction); higher = more cells survive
AZD8055 + Decitabine = compound: COc1ccc(-c2ccc3c(N4CCOC[C@@H]4C)nc(N4CCOC[C@@H]4C)nc3n2)cc1CO [AZD8055] + Nc1ncn([C@H]2C[C@H](O)[C@@H](CO)O2)c(=O)n1 [Decitabine] (partner 2 µM)
How it was run: (§1)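 Relative viability is defined as nuclei in treated wells over nuclei in vehicle wells. Duplicate plates were run and medians reported. Lung cancer cell lines in 1536-well plates were dosed by pin tool one day after seeding, with one drug or with a fixed anchor-drug dose plus five library-drug doses (not always all listed) in √10 steps, and nuclei were counted after 5 days.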

AZD8055 + Luminespib = compound: COc1ccc(-c2ccc3c(N4CCOC[C@@H]4C)nc(N4CCOC[C@@H]4C)nc3n2)cc1CO [AZD8055] + CCNC(=O)c1noc(-c2cc(C(C)C)c(O)cc2O)c1-c1ccc(CN2CCOCC2)cc1 [Luminespib] (partner 0.01 µM)
How it was run: as §1

AZD8055 + Dasatinib = compound: COc1ccc(-c2ccc3c(N4CCOC[C@@H]4C)nc(N4CCOC[C@@H]4C)nc3n2)cc1CO [AZD8055] + Cc1nc(Nc2ncc(C(=O)Nc3c(C)cccc3Cl)s2)cc(N2CCN(CCO)CC2)n1 [Dasatinib] (partner 0.075 µM)
How it was run: as §1

AZD8055 + Foretinib = compound: COc1ccc(-c2ccc3c(N4CCOC[C@@H]4C)nc(N4CCOC[C@@H]4C)nc3n2)cc1CO [AZD8055] + COc1cc2c(Oc3ccc(NC(=O)C4(C(=O)Nc5ccc(F)cc5)CC4)cc3F)ccnc2cc1OCCCN1CCOCC1 [Foretinib] (partner 0.25 µM)
How it was run: as §1

Cell Line	relative viability (AZD8055 + Decitabine; first compound 0.01 µM)	relative viability (AZD8055 + Decitabine; first compound 0.03162 µM)	relative viability (AZD8055 + Decitabine; first compound 0.1 µM)	relative viability (AZD8055 + Decitabine; first compound 0.3162 µM)	relative viability (AZD8055 + Decitabine; first compound 1 µM)	relative viability (AZD8055 + Luminespib; first compound 0.01 µM)	relative viability (AZD8055 + Luminespib; first compound 0.03162 µM)	relative viability (AZD8055 + Luminespib; first compound 0.1 µM)	relative viability (AZD8055 + Luminespib; first compound 0.3162 µM)	relative viability (AZD8055 + Luminespib; first compound 1 µM)	relative viability (AZD8055 + Dasatinib; first compound 0.01 µM)	relative viability (AZD8055 + Dasatinib; first compound 0.03162 µM)	relative viability (AZD8055 + Dasatinib; first compound 0.1 µM)	relative viability (AZD8055 + Dasatinib; first compound 0.3162 µM)	relative viability (AZD8055 + Dasatinib; first compound 1 µM)	relative viability (AZD8055 + Foretinib; first compound 0.01 µM)	relative viability (AZD8055 + Foretinib; first compound 0.03162 µM)	relative viability (AZD8055 + Foretinib; first compound 0.1 µM)	relative viability (AZD8055 + Foretinib; first compound 0.3162 µM)	relative viability (AZD8055 + Foretinib; first compound 1 µM)
NCI-H3122	0.442	0.341	0.3	0.149	0.129	0.0869	0.101	0.114	0.0794	0.0854	0.653	0.684	0.783	0.223	0.292	0.97	1.02	1.05	0.396	0.401
PC-3 [JPC-3]	0.902	0.912	0.797	0.758	0.614	0.717	0.565	0.693	0.469	0.332	1.01	0.937	0.946	0.641	0.444	1.12	1.12	1.1	0.774	0.492
PC-14	0.288	0.227	0.238	0.186	0.159	0.162	0.17	0.206	0.187	0.212	0.319	0.309	0.199	0.0815	0.0639	1.18	1.04	1.07	0.488	0.299
RERF-LC-KJ	0.589	0.68	0.666	0.383	0.395	1.19	1.14	0.853	0.475	0.473	0.946	0.753	0.607	0.284	0.343	0.963	0.754	0.771	0.535	0.392
SK-LU-1	0.64	0.547	0.568	0.422	0.343	0.205	0.185	0.159	0.145	0.154	0.163	0.161	0.136	0.113	0.121	0.784	0.627	0.427	0.258	0.212
SK-MES-1	0.395	0.34	0.333	0.269	0.246	0.371	0.503	0.185	0.182	0.213	0.404	0.337	0.256	0.213	0.179	0.849	0.819	0.81	0.408	0.329
SW 1573	0.496	0.316	0.38	0.195	0.189	0.121	0.256	0.167	0.103	0.187	0.583	0.534	0.262	0.114	0.103	0.86	0.645	0.803	0.516	0.251
UMC-11	0.575	0.472	0.492	0.317	0.364	1	0.659	0.477	0.229	0.268	0.521	0.381	0.302	0.252	0.224	1	0.8	0.555	0.292	0.297
